US20250127813A1, “COMBINATION DRUG” (OTSUKA PHARMACEUTICAL CO., LTD., priority 2021, published 2025)
“Also recorded” adds a separate entry of the source. Like-named read-outs stand apart in the source and are kept apart here.

Assays:
[1] = tested on: A375; test: Combination of tolinapant and NY-ESO-1 TCR-T in A375 subcutaneous tumor-bearing NOG mice; type: in vivo, mouse
Procedure: Each mouse was identified with a number attached to the tail of the mouse.
The evaluation period was set to 2 weeks, and grouping and pharmacological evaluation were performed based on the results of tumor diameter measurement using a caliper. The tumor diameter and body weight were measured twice a week.
Using trypsin-EDTA-PBS(−), the cultured cells were detached and collected and then centrifuged (4° C., 1200 rpm, 5 min). After removing the supernatant, D-PBS (−) was added and the cells were resuspended and washed by centrifugation in the same manner as above. This washing operation was further repeated twice. After a portion of the cell suspension was taken and the number of viable cells was counted using AOPI Staining Solution, a cell suspension at 1×10^7 cells/mL was prepared using D-PBS(−), After the preparation, the cell suspension was stored in ice until transplantation. […]
On the eighth day after the transplantation, the long diameter and the short diameter were measured and the tumor volume was calculated. […]
The tumor diameter was determined by measuring the short diameter and the long diameter using an electronic caliper (produced by Mitutoyo Corporation). After tumor cell transplantation, the tumor diameter was measured twice a week.
Based on the measurement results of the tumor diameter, the tumor volume (TV: tumor volume) was calculated using the following formula: […]

[2] = tested on: NALM6-luc2
Procedure: 6-week-old NOG mice produced by In-Vivo Science Co., Ltd., were obtained, and tumor cells were intravenously transplanted into the mice at 7 weeks of age to prepare tumor-bearing mice. The day before the transplantation, busulfex (BSF) was intraperitoneally administered at 20 mg/kg. During the breeding period, the mice were housed with 5 mice per group and bred in a P2A breeding room set to a temperature of 24° C. (actual measurement: 19.7 to 25.0° C.), humidity of 50% (actual measurement: 38.6 to 58.5%), and illumination of 12 hours/day (8:00 a.m. to 8:00 p.m.). During the breeding period, the mice were allowed free access to radiation-sterilized solid feed for mice (CL-2, produced by Clea Japan, Inc.) and autoclave-sterilized tap water placed in a water bottle.
CD19 CAR-T cells were intravenously administered once according to the group constitution on the same day as grouping. The IAP antagonist also started to be administered on the same day as grouping and was orally or intravenously administered according to the group constitution table.
The evaluation period was set to 3 to 4 weeks. Grouping and pharmacological evaluation were performed based on tumor luminescence values as determined by IVIS (trademark). Luminescence value measurement by IVIS (trademark) and body weight measurement were performed twice a week.
For NALM6-luc2, after resuspension, a portion of the cell suspension was taken, dead cells were stained with AOPI Staining Solution, and the number of viable cells was counted with a blood cell measuring device. A cell suspension was prepared by diluting the cells with RPMI 1640 to 1×10^7 cells/mL, based on the measurement results of viable cell count of the cells. Similarly, in a low tumor volume system, a cell suspension was prepared by diluting the cells with serum-free RPMI 1640 to achieve a concentration of 1×10^6 cells/mL.
After the mice were retained using a retainer, a cell suspension was transplanted at 1×10^6 cells/0.1 mL/body using a 27G Myjector (1 mL, produced by Terumo Corporation) to the tail vein of each mouse with no anesthesia. In the low tumor volume system, a cell suspension at 1×10^5 cells/0.1 mL/body was transplanted.
In accordance with the dosing regimen shown in FIG. 6, NALM6-luc2 was transplanted the day after treating the […] with busulfex. On the third day after the transplantation, luminescence values were measured using the IVIS (trademark) Lumina X5 In-Vivo imaging system (produced by PerkinElmer, Co., Ltd.). Using the luminous values as an indicator and using SAS software R9.4 (produced by SAS Institute Japan), the mice were divided into groups of 5 mice each by the stratified random sampling method.
1) A suspension of CD19 CAR-T cells was administered to the tail vein at the time of grouping. For the dosage, the number of viable CD19 CAR-T cells was counted and a cell suspension prepared according to the group constitution table was administered once at 0.1 mL/body. For the administration, a Myjector syringe with a 27G needle was used.
5) Birinapant was intraperitoneally administered at a dose of 10 mL/kg according to the group composition table. Tolinapant, LCL161, and AT406 were orally administered at a dose of 10 mL/kg according to the group composition table using a sonde in the same manner. For intraperitoneal administration, an insulin syringe with a 26G needle was used in place of the sonde. For oral administration, a needle was used in place of the sonde to administer each drug.
VivoGlo™-luciferin (produced by Promega) was dissolved in D-PBS(−) to achieve a concentration of 30 mg/mL and then cryopreserved at −20° C. under light-shielded conditions. On the day of measurement, dissolved VivoGlo™-luciferin was diluted with an equivalent amount of D-PBS(−) and stored at room temperature under light-shielded conditions until use for testing. Based on the body weight measured in advance, VivoGlo™-luciferin was intraperitoneally administered in a volume of 10 mL/kg.

[3] = tested on: CD19-negative NALM6; test: Cell death induction by tolinapant in presence of cytokine produced from CAR-T; type: cell-based; conditions: cytokine produced from CAR-T present with tolinapant; antigen-negative as well as antigen-expressing tumor cells
From the text: It has also been confirmed that when CAR-T used in this Example was reacted with a target CAR antigen-expressing tumor cell (e.g., CD19-positive NALM6) in vitro, cytokine (e.g., TNF-α) was produced. […] This non-contact apoptosis induction to tumor cells is expected to exert an antitumor effect on tumor cells in which antigen escape has occurred or tumor cells metastasized to a site to which modified immune cells cannot make access.

[4] = combined use with CD19 CAR-T, AUC up to day 14
[5] = combined use with CD19 CAR-T, AUC up to day 17
[6] = combined use with CD19 CAR-T, maximum tumor volume (luminescence value)

## C[C@@H]1CN(CC(=O)N2CC(C)(C)c3nc(CO)c(Cc4ccc(F)cc4)cc32)[C@@H](CN2CCOC[C@H]2C)CN1 [Tolinapant, 1-[6-[(4-fluorophenyl)methyl]-5-(hydroxymethyl)-3,3-dimethyl-2H-pyrrolo[3,2-b]pyridin-1-yl]-2-[(2R,5R)-5-methyl-2-[[(3R)-3-methylmorpholin-4-yl]methyl]piperazin-1-yl]ethanone]
[1]; tolinapant 16 mg/kg po + NY-ESO-1 TCR-T 3×10^6 cells/body iv, day 15
  tumor volume on day 15, combination versus either agent alone: a significant difference was observed
[1]; tolinapant 16 mg/kg po + NY-ESO-1 TCR-T iv, compared with NY-ESO-1 TCR-T alone
  tumor regression with NY-ESO-1 TCR-T and tolinapant both administered: a higher degree of tumor regression was confirmed; also recorded: synergistic effects based on the combined use were shown; also recorded: significant, highly reproducible results
[2]; combination with CD19 CAR-T, versus AT406, LCL161, birinapant
  maximum effect / drug efficacy-enhancement effect of combination with tolinapant compared with other IAP antagonists: the combination with tolinapant was superior; also recorded: a higher drug efficacy-enhancement effect than combinations with any other IAP antagonist
[2]; [4]
  t-Test using AUC as an indicator (day 14), Tolinapant versus AT406: <0.05
  t-Test using AUC as an indicator (day 14), Tolinapant versus Birinapant: <0.05
  t-Test using AUC as an indicator (day 14), Tolinapant versus LCL161: <0.05
[2]; [5]
  t-Test using AUC as an indicator (day 17), Tolinapant versus AT406: <0.05
  t-Test using AUC as an indicator (day 17), Tolinapant versus Birinapant: <0.05
  t-Test using AUC as an indicator (day 17), Tolinapant versus LCL161: <0.05
[2]; combined use with CD19 CAR-T, AUC up to day 17, listed as tolinapant
  t-Test using AUC as an indicator (day 17), Tolinapant versus AT406: a significance due to combined use of tolinapant could be observed
[2]; [6]
  t-Test using the maximum tumor volume as an indicator, Tolinapant versus AT406: <0.05
  t-Test using the maximum tumor volume as an indicator, Tolinapant versus Birinapant: <0.05
  t-Test using the maximum tumor volume as an indicator, Tolinapant versus LCL161: <0.05
[2]; combined use with CD19 CAR-T, maximum tumor volume (luminescence value), listed as tolinapant
  t-Test using the maximum tumor volume as an indicator, Tolinapant versus AT406: a significant difference
[2]; tolinapant 16 mg/kg qd po + CD19 CAR-T 1×10^5 cells/body iv
  effect of tolinapant + 1×10^5 cells CD19 CAR-T compared with 1×10^6 cells CD19 CAR-T alone: an effect equivalent to the effect achieved by using 1×10^6 cells of CD19 CAR-T alone was observed on day 14; also recorded: better tumor regression was observed on day 14 and thereafter
[2]; tolinapant 16 mg/kg qd po + CD19 CAR-T 1×10^5 cells/body iv, versus tolinapant only or CD19 CAR-T only
  combination effect of tolinapant and CD19 CAR-T (tumor luminescence value): significantly improved effect (p<0.05); also recorded: a significant combination effect was observed on day 7 and thereafter; also recorded: significant, highly reproducible results
[2]; tolinapant alone, 16 mg/kg, daily oral administration
  efficacy of tolinapant administered alone: showed no efficacy; also recorded: no effect
[3]
  induction of cell death (e.g., apoptosis): cell death (e.g., apoptosis) is induced to antigen-negative tumor cells (e.g., CD19-negative NALM6) as well as antigen-expressing cells
